{"source": "paper PMC12970513", "about": "“Unsaturated Phosphorus Electrophiles to Probe Protein Tyrosine Phosphatases” (Angewandte Chemie (International Ed. in English), 2026)", "key": {"[1]": {"assay": "Stability of bio-PN and bio-PO in HEK293T cell lysate by 31P NMR", "assay_type": "in vitro ADME, human", "settings": "HEK293T lysate (1 mg/mL), 1 mM peptide, room temperature", "procedure": "Next, we assessed the stability of the phosphonamidic and phosphonic acid in aqueous buffers at pH 2, pH 3.5, pH 7.4, pH 8.5, and pH 11. Therefore, SM‐PN and SM‐PO were added in the corresponding buffers and monitored for 48 h at room temperature via ^31P‐NMR with triphenylphosphinoxide (TPPO) as an internal standard (Figure S2). […] Furthermore, we evaluated the stability of the peptide probes bio‐PN and bio‐PO in human lysate for subsequent experiments. These peptides were added in HEK293T cell lysate, and changes in stability were recorded for 18 h via ^31P‐NMR, in which inorganic phosphate served as an internal standard. […] Nonetheless, both peptides display sufficient stability for follow‐up studies.\nA solution of 480 µL of HEK293T cell lysate (1 mg/mL) was supplemented with 60 µL of D2O. To this, 60 µL of bio-PN or bio-PO (10 mM stock in DMSO, final concentration 1 mM) were added right before the start of the measurement. The mixtures were transferred to NMR tubes and one-dimensional ^31P-NMR spectra were recorded for each sample at room temperature, in intervals of 2.5 h over the course of 18 h on a Bruker AV-III 600 spectrometer. For analysis, the spectra were Fourier-transformed, baseline corrected and the intensity of the ^31P-NMR signal was obtained by integration."}, "[2]": {"assay": "Lysate labeling by fluorescence gel scanning, HEK293T", "design": "species or system human", "settings": "HEK293T lysate 2 mg/mL, 50 mM sodium succinate pH 6.0, 150 mM NaCl, 1 mM EDTA, 1 mM DTT, 1 h, R.T.", "description": "Having identified suitable conditions, we aimed to compare our target‐specific peptide PO‐probe with a broad reactivity PTP probe in order to visualize the different reactivity patterns in human lysate. […] Using the previously reported buffer conditions, HEK293T cell lysate (50 mM sodium succinate, pH 6.0, 150 mM NaCl, 1 mM EDTA, 1 mM DTT) was incubated for 1 h with TMR‐BBP (100 µM).\nFor fluorescence gel scanning of TMR labeled probes samples resolved by SDS-PAGE and first visualized at a Bio-Rad imaging system equipped with a 532 nm laser for excitation. Afterwards, wherever applicable gels were stained with Coomassie brilliant blue.\nFor the comparison of the labeling pattern between TMR-PO and a general phosphatase probe (TMR-BBP) freshly lysed HEK293T cell lysate was adjusted to 2 mg/mL. […] For labeling with TMR-BBP cells were lysed in 50 mM sodium succinate buffer pH 6.0, 150 mM NaCl, 1 mM EDTA, and 1 mM DTT as previously reported.^[3] […] The reactions were incubated for 1 hour at room temperature and subsequently analyzed by fluorescence gel scanning.\nA volume of 49 µL of each lysate was mixed with 1 µL of a 5 mM TMR-PO stock solution in DMSO and incubated for 1 hour at room temperature. Samples were resolved by SDS-PAGE and analyzed by fluorescence gel scanning."}}, "note": "*1 amine or outer side, *2 acyl side, *3 side chain or, on linkers, in order; H or OH if unused. Where a SMILES comes first, the peptide text is derived from it. [ ]: non-standard residue; d: D form. The star is where a group is joined. X1 = C#CP(=O)(O)Oc1ccc(C[C@H](N[*:1])C(=O)[*:2])cc1; X2 = C#CP(=O)(O)Nc1ccc(C[C@H](N[*:1])C(=O)[*:2])cc1; Biotin = O=C1N[C@H]2[C@H](CS[C@H]2CCCCC(=O)*)N1", "data": [{"molecule": "C#CP(=O)(O)Nc1ccc(C[C@H](NC(=O)[C@H](CCC(=O)O)NC(=O)[C@H](CC(=O)O)NC(=O)[C@H](C)NC(=O)[C@H](CC(=O)O)NC(=O)CCCC[C@@H]2SC[C@@H]3NC(=O)N[C@@H]32)C(=O)N[C@@H](CC(C)C)C(=O)N[C@H](C(=O)N2CCC[C@H]2C(=O)N[C@@H](CCC(N)=O)C(=O)N[C@@H](CCC(N)=O)C(=O)NCC(N)=O)[C@@H](C)CC)cc1", "note": "[bio-PN] (Biotin-DADE[X2]LIPQQG-NH2)", "values": [{"measurement": "remaining at 18 h, 1 mM", "setting": "[1]; human, HEK293T cell lysate, inorganic phosphate internal standard, read-out: remaining intact in HEK293T cell lysate", "result": 80, "unit": "%"}, {"measurement": "metabolised at 18 h, 1 mM", "setting": "[1]; human, HEK293T cell lysate, read-out: decay in HEK293T cell lysate", "result": 20, "unit": "%"}]}, {"molecule": "C#CP(=O)(O)Oc1ccc(C[C@H](NC(=O)[C@H](CCC(=O)O)NC(=O)[C@H](CC(=O)O)NC(=O)[C@H](C)NC(=O)[C@H](CC(=O)O)NC(=O)CCCC[C@@H]2SC[C@@H]3NC(=O)N[C@@H]32)C(=O)N[C@@H](CC(C)C)C(=O)N[C@H](C(=O)N2CCC[C@H]2C(=O)N[C@@H](CCC(N)=O)C(=O)N[C@@H](CCC(N)=O)C(=O)NCC(N)=O)[C@@H](C)CC)cc1", "note": "[bio-PO] (Biotin-DADE[X1]LIPQQG-NH2)", "values": [{"measurement": "decay in HEK293T cell lysate", "setting": "[1]; 18 h", "result": "remains intact"}, {"measurement": "remaining intact in HEK293T cell lysate", "setting": "[1]; 18 h, inorganic phosphate internal standard", "result": "stayed unaltered"}]}, {"molecule": "α-bromo(4-((N-5/6-TAMRA-aminomethyl)phenyl)methyl)phosphonic acid [TMR-BBP]", "values": [{"measurement": "labeling pattern in HEK293T lysate (TMR-BBP)", "setting": "[2]", "result": "labeled many proteins across the whole proteome"}]}]}
